In ChEMBL document CHEMBL6134890, “Terminally Symmetric β-Turn Peptides for Multidrug-Resistant Bacterial Infections” (J Med Chem, 2025):
Values after ≈ are worked out from the molar mass of the structure shown. Active and inactive are the calls of the source. The rule behind the calls is not given here. Bridge positions count the residues as written; N and C are the ends. Square brackets hold non-standard residues; d marks the D form. Peptide text beside a SMILES is read from it. * marks the point of attachment. X1 = CC[C@H](C)CCCCC(=O)*; dDab = NCC[C@@H](N)C(=O)O; Dab = NCC[C@H](N)C(=O)O

Key:
[1] = tested on: Staphylococcus aureus; assay: Antimicrobial activity against Staphylococcus aureus ATCC 25923 assessed as reduction in bacterial growth by broth dilution method; type: functional
[2] = tested on: Staphylococcus aureus; assay: Antimicrobial activity against multi-drug resistant Staphylococcus aureus assessed as reduction in bacterial growth by broth dilution method; type: functional
[3] = tested on: Staphylococcus epidermidis; assay: Antimicrobial activity against multi-drug resistant Staphylococcus epidermidis assessed as reduction in bacterial growth by broth dilution method; type: functional
[4] = tested on: Enterococcus faecalis; assay: Antimicrobial activity against multi-drug resistant Enterococcus faecalis assessed as reduction in bacterial growth by broth dilution method; type: functional
[5] = tested on: Escherichia coli; assay: Antimicrobial activity against Escherichia coli ATCC 25922 assessed as reduction in bacterial growth by broth dilution method; type: functional
[6] = tested on: Escherichia coli; assay: Antimicrobial activity against multi-drug resistant Escherichia coli assessed as reduction in bacterial growth by broth dilution method; type: functional
[7] = tested on: Klebsiella pneumoniae; assay: Antimicrobial activity against multi-drug resistant Klebsiella pneumoniae assessed as reduction in bacterial growth by broth dilution method; type: functional
[8] = tested on: Acinetobacter baumannii; assay: Antimicrobial activity against multi-drug resistant Acinetobacter baumannii assessed as reduction in bacterial growth by broth dilution method; type: functional
[9] = Hemolytic activity in human Red blood cell assessed as hemolysis incubated for 1 hrs by microplate reader based analysis; type: toxicity; details: erythrocyte
[10] = tested on: HEK-293T; assay: Cytotoxicity against HEK293T cells at 256 uM measured after 24 hrs by CCK-8 method relative to control; type: toxicity, cell-based; details: human
[11] = tested on: L02; assay: Cytotoxicity against human LO2 cells at 256 uM measured after 24 hrs by CCK-8 method relative to control; type: toxicity, cell-based; details: l02, 24 h
[12] = tested on: Escherichia coli; assay: Antibacterial activity against Escherichia coli […] at sub-inhibitory concentration measured after 7 passages for 18 hrs; type: functional, organism-based
[13] = tested on: Staphylococcus aureus; assay: Antibacterial activity against Staphylococcus aureus ATCC 25923 at sub-inhibitory concentration measured after 7 passages for 18 hrs; type: functional, organism-based
[14] = tested on: Escherichia coli; assay: Bactericidal activity against multi-drug resistant Escherichia coli at 1 times MIC preincubated with LPS for 1 hrs followed by bacterial addition and measured after 18 hrs by microplate reader based analysis; type: functional, organism-based; details: time 19.0 hrs
[15] = tested on: Cell membrane; assay: Induction of outer membrane permeabilization in multi-drug resistant Escherichia coli assessed as NPN uptake at 1 to 4 times MIC measured within 1 min by fluorescence based analysis; type: subcellular
[16] = tested on: Cell membrane; assay: Induction of cytoplasmic membrane depolarization in multi-drug resistant Escherichia coli at 1 to 4 times MIC measured within 1 min by DiSC3-5 fluorescent dye based analysis
[17] = tested on: Cell membrane; assay: Induction of cytoplasmic membrane depolarization in multi-drug resistant Staphylococcus aureus at 1 to 4 times MIC measured within 1 min by DiSC3-5 fluorescent dye based analysis
[18] = tested on: Escherichia coli; assay: Antibacterial activity against Escherichia coli ATCC 25922 infected in male Kunming mouse model assessed as reduction in bacterial load measured after 11 days; type: functional, organism-based; details: time 11.0 day
[19] = tested on: Escherichia coli; assay: Antibacterial activity against multidrug resistant Escherichia coli infected in male Kunming mouse model assessed as recovery of mouse weight measured after 11 days; type: functional, organism-based; details: time 11.0 day
[20] = tested on: Escherichia coli; assay: Antibacterial activity against multidrug resistant Escherichia coli infected in male Kunming mouse model assessed as reduction in wound size measured after 3 to 5 days by caliper method; type: functional, organism-based; details: time 3-5 day
[21] = tested on: Escherichia coli; assay: Antibacterial activity against multidrug resistant Escherichia coli infected in male Kunming mouse model assessed as scabs thickening measured after 7 days by caliper method; type: functional, organism-based; details: time 7.0 day
[22] = tested on: Escherichia coli; assay: Antibacterial activity against multidrug resistant Escherichia coli infected in male Kunming mouse model assessed as wound healing measured after 11 days by caliper method; type: functional, organism-based; details: time 11.0 day
[23] = tested on: Escherichia coli; assay: Antibacterial activity against multidrug resistant Escherichia coli infected in male Kunming mouse model assessed as reduction in epidermal thickening by H and E staining based analysis; type: functional, organism-based
[24] = tested on: Escherichia coli; assay: Antibacterial activity against multidrug resistant Escherichia coli infected in male Kunming mouse model assessed as reduction in tissue hemorrhage by H and E staining based analysis; type: functional, organism-based
[25] = tested on: Escherichia coli; assay: Antibacterial activity against multidrug resistant Escherichia coli infected in male Kunming mouse model assessed as inflammatory cell infiltration by H and E staining based analysis; type: functional, organism-based
[26] = tested on: Escherichia coli; assay: Antibacterial activity against multidrug resistant Escherichia coli infected in male Kunming mouse model assessed as reduction in IL-6 expression by immunochemical analysis; type: functional, organism-based
[27] = tested on: BEAS-2B; assay: Cytotoxicity against human BEAS-2B cells at 2 to 256 uM measured after 24 hrs by CCK-8 method; type: toxicity, cell-based; details: dose 2-256 µM
[28] = tested on: HEK-293T; assay: Cytotoxicity against HEK293T cells at 2 to 256 uM measured after 24 hrs by CCK-8 method; type: toxicity, cell-based; details: human, dose 2-256 µM
[29] = tested on: L02; assay: Cytotoxicity against human LO2 cells at 2 to 256 uM measured after 24 hrs by CCK-8 method; type: toxicity, cell-based; details: l02, 24 h, dose 2-256 µM
[30] = tested on: Staphylococcus aureus; assay: Antimicrobial activity against multi-drug resistant Staphylococcus aureus assessed as fold increase in MIC in presence of NaCl; type: functional
[31] = tested on: Staphylococcus aureus; assay: Antimicrobial activity against multi-drug resistant Staphylococcus aureus assessed as fold increase in MIC in presence of MgCl2; type: functional
[32] = tested on: Escherichia coli; assay: Antimicrobial activity against multi-drug resistant Escherichia coli assessed as fold increase in MIC in presence of NaCl; type: functional
[33] = tested on: Escherichia coli; assay: Antimicrobial activity against multi-drug resistant Escherichia coli assessed as fold increase in MIC in presence of MgCl2; type: functional
[34] = tested on: Staphylococcus aureus; assay: Antimicrobial activity against multi-drug resistant Staphylococcus aureus assessed as fold increase in MIC measured after 6 hrs in 25% plasma; type: functional
[35] = tested on: Escherichia coli; assay: Antimicrobial activity against multi-drug resistant Escherichia coli assessed as fold increase in MIC measured after 6 hrs in 25% plasma; type: functional
[36] = Half life of the compound in 25% plasma; type: ADME, cell-free
[37] = tested on: Escherichia coli; assay: Antimicrobial activity against multi-drug resistant Escherichia coli assessed as reduction in bacterial growth at 2 times MIC measured after 1 hrs in presence of trypsin by microplate reader based analysis; type: functional, organism-based
[38] = tested on: Escherichia coli; assay: Antimicrobial activity against multi-drug resistant Escherichia coli assessed as reduction in bacterial growth at 2 times MIC measured after 1 hrs in presence of chymotrypsin by microplate reader based analysis; type: functional, organism-based
[39] = tested on: Staphylococcus aureus; assay: Antimicrobial activity against multi-drug resistant Staphylococcus aureus assessed as reduction in bacterial growth at 2 times MIC measured after 1 hrs in presence of trypsin by microplate reader based analysis; type: functional, organism-based
[40] = tested on: Staphylococcus aureus; assay: Antimicrobial activity against multi-drug resistant Staphylococcus aureus assessed as reduction in bacterial growth at 2 times MIC measured after 1 hrs in presence of chymotrypsin by microplate reader based analysis; type: functional, organism-based

SMILES: CN[C@H](CC(C)C)C(=O)N[C@H]1C(=O)N[C@@H](CC(N)=O)C(=O)N[C@H]2C(=O)N[C@H]3C(=O)N[C@H](C(=O)N[C@H](C(=O)O)c4cc(O)cc(O)c4-c4cc3ccc4O)[C@H](O)c3ccc(c(Cl)c3)Oc3cc2cc(c3O[C@@H]2O[C@H](CO)[C@@H](O)[C@H](O)[C@H]2O[C@H]2C[C@](C)(N)[C@H](O)[C@H](C)O2)Oc2ccc(cc2Cl)[C@H]1O [VANCOMYCIN]
- MIC [1]: 1 µM (≈ 1.45 µg/mL)
- MIC [2]: 1 µM (≈ 1.45 µg/mL)
- MIC [3]: 2 µM (≈ 2.9 µg/mL)
- MIC [4]: > 256 µM
- MIC [5]: 256 µM (≈ 371 µg/mL)
- MIC [6]: > 256 µM
- MIC [7]: > 256 µM
- MIC [8]: > 256 µM
- HC10 [9]: > 256 µM
- Activity [10]: 75%
- Activity [11]: 75%

SMILES: CC(C)CCCCC(=O)N[C@@H](CCN)C(=O)N[C@H](C(=O)N[C@@H](CCN)C(=O)N[C@H]1CCNC(=O)[C@H]([C@@H](C)O)NC(=O)[C@H](CCN)NC(=O)[C@H](CCN)NC(=O)[C@H](CC(C)C)NC(=O)[C@@H](Cc2ccccc2)NC(=O)[C@@H](CCN)NC1=O)[C@@H](C)O.CC[C@H](C)CCCCC(=O)N[C@@H](CCN)C(=O)N[C@H](C(=O)N[C@@H](CCN)C(=O)N[C@H]1CCNC(=O)[C@H]([C@@H](C)O)NC(=O)[C@H](CCN)NC(=O)[C@H](CCN)NC(=O)[C@H](CC(C)C)NC(=O)[C@@H](Cc2ccccc2)NC(=O)[C@@H](CCN)NC1=O)[C@@H](C)O (X1-[Dab]T[Dab][Dab][dDab][dF]L[Dab][Dab]T; lactam 4-C)
- Activity [12]: inactive
- Activity [13]: inactive
- Activity [14]: inactive
- Activity [15]: Active
- Activity [16]: Active
- Activity [17]: inactive

SMILES: C[C@H]1COc2c(N3CCN(C)CC3)c(F)cc3c(=O)c(C(=O)O)cn1c23 [LEVOFLOXACIN ANHYDROUS]
- MIC [1]: 0.25 µM (≈ 0.0903 µg/mL)
- MIC [2]: 0.25 µM (≈ 0.0903 µg/mL)
- MIC [3]: 8 µM (≈ 2.89 µg/mL)
- MIC [4]: 32 µM (≈ 11.6 µg/mL)
- MIC [5]: 2 µM (≈ 0.723 µg/mL)
- MIC [6]: 64 µM (≈ 23.1 µg/mL)
- MIC [7]: 64 µM (≈ 23.1 µg/mL)
- MIC [8]: > 256 µM
- Activity [18]: Active
- Activity [19]: Active
- Activity [20]: Active
- Activity [21]: Active
- Activity [22]: inactive
- Activity [23]: inactive
- Activity [24]: inactive
- Activity [25]: inactive
- Activity [26]: inactive

SMILES: CC(C)C[C@H](NC(=O)[C@H](CCCCN)NC(=O)[C@H](CC(C)C)NC(=O)[C@H](CCCCN)NC(=O)[C@@H]1CCCN1C(=O)[C@H](Cc1c[nH]c2ccccc12)NC(=O)[C@H](Cc1c[nH]c2ccccc12)NC(=O)[C@H](Cc1c[nH]c2ccccc12)NC(=O)[C@@H]1CCCN1C(=O)[C@H](CCCCN)NC(=O)[C@H](CC(C)C)NC(=O)[C@H](CCCCN)NC(=O)[C@H](CC(C)C)NC(=O)[C@@H](N)CCCCN)C(=O)N[C@@H](CCCCN)C(N)=O (H-KLKLKPWWWPKLKLK-NH2)
- MIC [1]: 8 µM (≈ 15.9 µg/mL)
- MIC [2]: 8 µM (≈ 15.9 µg/mL)
- MIC [3]: 8 µM (≈ 15.9 µg/mL)
- MIC [4]: 8 µM (≈ 15.9 µg/mL)
- MIC [5]: 4 µM (≈ 7.97 µg/mL)
- MIC [6]: 4 µM (≈ 7.97 µg/mL)
- MIC [7]: 4 µM (≈ 7.97 µg/mL)
- MIC [8]: 8 µM (≈ 15.9 µg/mL)
- HC10 [9]: > 256 µM
- Activity [27]: Toxic
- Activity [28]: Toxic
- Activity [29]: Toxic
- fold change (FC) [30]: 2
- fold change (FC) [31]: 2
- fold change (FC) [32]: 2
- fold change (FC) [33]: 2
- fold change (FC) [34]: 2
- fold change (FC) [35]: 2
- half-life [36]: 35.4 h
- Activity [37]: inactive
- Activity [38]: inactive
- Activity [39]: inactive
- Activity [40]: inactive
